The values below are quoted from earlier work in patent publication US11384033B2, “Compositions with improved urease-inhibiting effect comprising (thio)phosphoric acid triamide and further compounds such as amines and colorants” (BASF SE, priority 2014, dated 2022).

For this series the following is noted: de-ionized water at 25° C. and atmospheric pressure.

In the case of `CC(O)CO` (stereo not shown) [propane-1,2-diol], the pKa value is reported as 14.9.
